Measured values published in US20250074911A1, “MACROCYCLIC BTK INHIBITORS” (Crossfire Oncology Holding B.V., priority 2021, published 2025).
Read-outs that look alike come from different tables or passages of the source.

Tests used:
[1] = target: full-length wt-BTK enzyme (Homo sapiens (Human), UniProt Q06187); experiment: Biochemical kinase assay wt-BTK (IMAP)
Method in brief: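 IMAP fluorescence polarization assay: 1.2 nM enzyme pre-incubated 1 h with compound at room temperature, then 50 nM fluorescein-labeled MBP-derived peptide and 4 μM ATP added. Reaction ran 2 h at room temperature in the dark before quenching with IMAP binding solution.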

[2] = system: wt-REC-1 mantle cell lymphoma cells; experiment: Cell proliferation assay wt-REC-1 (ATPlite, 72 hours); format: cell-based; conditions: read-out: IC50 wt-REC-1
Method in brief: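 Luminescent viability read over 72 h, start-of-incubation signal recorded separately to separate growth from cell death. Percentage growth referenced to compound-free 0.3% DMSO wells; IC50 from 4-parameter logistic fit.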

REC-1 T474I cell lines = experiment: Cell proliferation assay REC-1 BTK T474I knock-in cells (ATPlite, 72 hours); format: cell-based; conditions: 72 hours, read-out: IC50 REC-1 T474I
Method in brief: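 REC-1 cells carrying CRISPR knock-in mutant BTK, single-cell cloned and sequence-confirmed, were exposed to compound for 72 h and read by ATPlite luminescence. Percentage growth was calculated against the signal at the start of incubation and against untreated 0.3% DMSO wells as maximum growth.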

[3] = system: wt-TMD8 diffuse large B-cell lymphoma cells; experiment: Cell proliferation assay wt-TMD8 (ATPlite, 120 hours); format: cell-based; conditions: wt-TMD8 cells, 120 hours, ATPlite, read-out: IC50 wt-TMD8
Description: Cell proliferation assay wt-TMD8 diffuse large B-cell lymphoma cells were purchased from Tokyo Medical and Dental University and cultured in RPMI-1640 cell culture medium (cat. no. 61870036, Life Technologies), supplemented with 10% (v/v) heat-inactivated fetal bovine calf serum and 1% penicillin/[…]. 1600 cells per well (in 45 μl) were seeded in a white 384-well culture plate (cat. no. 781080, Greiner Bio-One) and allowed to rest for at least 5 hours at 37° C., 95% humidity, and 5% CO2. 5 μl compound solution was added to the cells and incubation was continued for 120 hours (5 days), followed by addition of 24 μl ATPlite 1Step™ (PerkinElmer, Groningen, The Netherlands) solution was added to each well. Luminescence was recorded on an Envision multimode reader. The cell signal at the start of incubation was recorded separately in order to distinguish between cell population growth and cell death. In addition, maximum growth was determined by incubation of a duplicate without compound in the presence of 0.3% DMSO. Percentage growth was used as the main y-axis signal.

[4] = target: full-length BTK C481S enzyme (Homo sapiens (Human), UniProt Q06187, C481S); experiment: Biochemical kinase assay BTK C481S (IMAP)
Method in brief: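 Full-length BTK C481S (1.2 nM) was pre-incubated with compound for 1 h at room temperature in the dark, then reacted with fluorescein-labelled MBP-derived peptide (50 nM) and ATP (7 μM) for 2 h. Reactions were quenched with IMAP binding solution, and IC50 values were derived from fluorescence polarization.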

full-length wt-BTK enzyme, sequence (Q06187 whole entry): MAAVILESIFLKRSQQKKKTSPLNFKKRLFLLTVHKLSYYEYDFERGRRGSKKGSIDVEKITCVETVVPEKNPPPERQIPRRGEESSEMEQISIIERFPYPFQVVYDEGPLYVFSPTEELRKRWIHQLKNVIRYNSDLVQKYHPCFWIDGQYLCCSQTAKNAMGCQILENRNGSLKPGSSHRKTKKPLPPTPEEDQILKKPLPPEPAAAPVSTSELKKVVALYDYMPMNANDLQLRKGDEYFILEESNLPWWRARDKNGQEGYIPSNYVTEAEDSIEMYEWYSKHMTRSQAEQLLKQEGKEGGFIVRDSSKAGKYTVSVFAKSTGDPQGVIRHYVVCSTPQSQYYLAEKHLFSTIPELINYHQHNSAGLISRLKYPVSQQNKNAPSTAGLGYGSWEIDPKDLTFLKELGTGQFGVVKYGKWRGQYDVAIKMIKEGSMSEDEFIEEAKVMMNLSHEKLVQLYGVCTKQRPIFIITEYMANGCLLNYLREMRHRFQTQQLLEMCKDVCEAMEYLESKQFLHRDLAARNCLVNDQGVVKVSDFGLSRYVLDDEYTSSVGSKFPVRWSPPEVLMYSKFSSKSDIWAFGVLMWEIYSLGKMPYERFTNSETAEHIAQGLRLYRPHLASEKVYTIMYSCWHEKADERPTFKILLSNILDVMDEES
full-length BTK C481S enzyme, sequence (Q06187 whole entry C481S): as the sequence (Q06187 whole entry) above, with C481S counted along it

| Compound | IC50 [1] | IC50 ([2]; 72 h) | IC50 ([3]; B-cell) | IC50 [4] | IC50 ([2]; 72 hours) | IC50 [3] | IC50 (REC-1 T474I cell lines; Homo sapiens, Rec1) | IC50 (REC-1 T474I cell lines) |
| --- | --- | --- | --- | --- | --- | --- | --- | --- |
| Nc1ncc2c3c1c(-c1ccc(C(=O)Nc4cc(C(F)(F)F)ccn4)cc1)nn3[C@@H]1CCC[C@H](C1)C(=O)NCC/C=C/2 [Example 4] | 5 to 50 nM | 100 to 1000 nM | 100 to 1000 nM | 5 to 50 nM | – | – | 500 to 10000 nM | – |
| CC1NC/C=C/c2cnc(N)c3c(-c4ccc(C(=O)Nc5cc(C(F)(F)F)ccn5)cc4)nn(c23)CC[C@@H](C)NC1=O (single isomer, unassigned) [Example 144] | 5 to 50 nM | – | – | 5 to 50 nM | 1000 to 10000 nM | < 100 nM | – | 500 to 10000 nM |
| Nc1ncc2c3c1c(-c1ccc(C(=O)Nc4cc(C(F)(F)F)ccn4)cc1)nn3[C@@H]1CCC[C@H](C1)NC(=O)CCCCCC/C=C\C2 [Example 103b] | < 5 nM | 100 to 1000 nM | < 100 nM | < 5 nM | – | – | 100 to 500 nM | – |
| CC(=O)N1CC/C=C/c2cnc(N)c3c(-c4ccc(C(=O)Nc5cc(C(F)(F)F)ccn5)cc4)nc(n23)[C@@H]2CC[C@H](C2)NC(=O)C1 [Example 220] | < 5 nM | 1000 to 10000 nM | < 100 nM | < 5 nM | – | – | 500 to 10000 nM | – |
| Nc1ncc2n3c(nc(-c4ccc(C(=O)Nc5cc(C(F)(F)F)ccn5)cc4)c13)[C@@H]1CCC[C@H](C1)NC(=O)CCOCC/C=C/2 [Example 177] | < 5 nM | < 100 nM | < 100 nM | < 5 nM | – | – | 100 to 500 nM | – |
| Nc1ncc2c3c1c(-c1ccc(C(=O)Nc4cc(C(F)(F)F)ccn4)cc1)nn3[C@@H]1CCC[C@H](C1)NC(=O)[C@H]1CCN1CC/C=C/2 [Example 42] | < 5 nM | < 100 nM | < 100 nM | < 5 nM | – | – | 100 to 500 nM | – |
| CC1NC/C=C/c2cnc(N)c3c(-c4ccc(C(=O)Nc5cc(C(F)(F)F)ccn5)cc4)nn(c23)CC[C@@H](C)NC1=O (single isomer, unassigned) [Example 143] | < 5 nM | – | < 100 nM | < 5 nM | 100 to 1000 nM | – | 500 to 10000 nM | – |
| CN1C/C=C/c2cnc(N)c3c(-c4ccc(C(=O)Nc5cc(C(F)(F)F)ccn5)cc4)nn(c23)[C@@H]2CCC[C@H](C2)C(=O)NCC1 [Example 3] | < 5 nM | 100 to 1000 nM | < 100 nM | < 5 nM | – | – | 500 to 10000 nM | – |
| Nc1ncc2c3c1c(-c1ccc(C(=O)Nc4cc(C(F)(F)F)ccn4)cc1)nn3[C@@H]1CCC[C@H](C1)NC(=O)CCCCCC/C=C/2 [Example 16] | < 5 nM | < 100 nM | < 100 nM | < 5 nM | – | – | < 100 nM | – |
| C[C@@H]1CC(=O)N[C@@H]2CCC[C@H](C2)n2nc(-c3ccc(C(=O)Nc4cc(C(F)(F)F)ccn4)cc3)c3c(N)ncc(c32)/C=C/CN1 [Example 160] | < 5 nM | < 100 nM | < 100 nM | < 5 nM | – | – | 100 to 500 nM | – |
| Nc1ncc2c3c1c(-c1ccc(C(=O)Nc4cc(C(F)(F)F)ccn4)cc1)nn3[C@@H]1CCC[C@H](C1)NC(=O)CNCCC/C=C/2 [Example 31] | < 5 nM | < 100 nM | < 100 nM | < 5 nM | – | – | < 100 nM | – |
| C[C@@H]1CC(=O)N[C@@H]2CCC[C@H](C2)c2nc(-c3ccc(C(=O)Nc4cc(C#N)ccn4)cc3)c3c(N)ncc(n23)/C=C/CCN1 [Example 206] | < 5 nM | < 100 nM | < 100 nM | < 5 nM | – | – | 500 to 10000 nM | – |
| Nc1ncc2c3c1c(-c1ccc(C(=O)Nc4cc(C(F)(F)F)ccn4)cc1)nn3[C@@H]1CCC[C@H](C1)NC(=O)COC/C=C\C2 [Example 97b] | 5 to 50 nM | 100 to 1000 nM | < 100 nM | < 5 nM | – | – | 500 to 10000 nM | – |
| [2H]C1CCCCNC(=O)[C@@H]2CCC[C@H](C2)n2nc(-c3ccc(C(=O)Nc4cc(C(F)(F)F)ccn4)cc3)c3c(N)ncc(c32)C1[2H] (stereo partly shown) [Example 128] | < 5 nM | 100 to 1000 nM | < 100 nM | < 5 nM | – | – | 100 to 500 nM | – |
| Nc1ncc2c3c1c(-c1ccc(C(=O)Nc4cc(C(F)(F)F)ccn4)cc1)nn3[C@@H]1CCC[C@H](C1)NC(=O)CCCC(F)(F)/C=C/2 [Example 138] | 5 to 50 nM | < 100 nM | < 100 nM | 5 to 50 nM | – | – | 500 to 10000 nM | – |
| Nc1ncc2c3c1c(-c1ccc(C(=O)Nc4ccccn4)cc1)nn3[C@@H]1CCC[C@H](C1)C(=O)NCCCCCCCCC2 [Example 123] | < 5 nM | 100 to 1000 nM | < 100 nM | < 5 nM | – | – | 500 to 10000 nM | – |

The next lines start with results.

| IC50 [1] | IC50 ([2]; 72 h) | IC50 ([3]; B-cell) | IC50 [4] | IC50 ([2]; 72 hours) | IC50 [3] | Compound | IC50 (REC-1 T474I cell lines; Homo sapiens, Rec1) | IC50 (REC-1 T474I cell lines) |
| --- | --- | --- | --- | --- | --- | --- | --- | --- |
| < 5 nM | < 100 nM | < 100 nM | < 5 nM | – | – | Nc1ncc2c3c1c(-c1ccc(C(=O)Nc4cc(C(F)(F)F)ccn4)cc1)nn3[C@@H]1CCCN(C1)C(=O)CCCCCCC/C=C/2 [Example 80] | < 100 nM | – |
| < 5 nM | 100 to 1000 nM | < 100 nM | < 5 nM | – | – | COc1ccc(F)cc1C(=O)NCc1ccc(-c2nc3n4c(cnc(N)c24)/C=C/CCN[C@H](C)CC(=O)N[C@@H]2CC[C@@H]3C2)cc1 [Example 214] | 500 to 10000 nM | – |
| < 5 nM | – | < 100 nM | < 5 nM | 1000 to 10000 nM | – | C[C@@H]1CC(=O)N[C@@H]2CC[C@H](C2)c2nc(-c3ccc(C(=O)Nc4cc(C#N)ccn4)cc3)c3c(N)ncc(n23)/C=C/CCN1 [Example 208] | 500 to 10000 nM | – |
| < 5 nM | 1000 to 10000 nM | < 100 nM | < 5 nM | – | – | CC1NC/C=C/c2cnc(N)c3c(-c4ccc(C(=O)Nc5cc(C(F)(F)F)ccn5)cc4)nn(c23)[C@@H]2CCC[C@H](C2)NC1=O (stereo partly shown) [Example 145] | 500 to 10000 nM | – |
| < 5 nM | 1000 to 10000 nM | < 100 nM | < 5 nM | – | – | C[C@@H]1CNC(=O)[C@@H]2CCC[C@H](C2)n2nc(-c3ccc(C(=O)Nc4cc(C(F)(F)F)ccn4)cc3)c3c(N)ncc(c32)/C=C/CN1C [Example 154] | 500 to 10000 nM | – |
| < 5 nM | < 100 nM | < 100 nM | < 5 nM | – | – | COc1cc(-c2nn3c4c(cnc(N)c24)/C=C/CCN[C@H](C)CC(=O)N[C@@H]2CCC[C@@H]3C2)ccc1C(=O)Nc1cc(C(F)(F)F)ccn1 [Example 194] | 500 to 10000 nM | – |
| < 5 nM | < 100 nM | < 100 nM | < 5 nM | – | – | Nc1ncc2c3c1c(-c1ccc(C(=O)Nc4ccccn4)cc1)nn3[C@@H]1CCC[C@H](C1)C(=O)NCCCCCCC2 [Example 118] | 500 to 10000 nM | – |
| < 5 nM | – | – | < 5 nM | < 100 nM | < 100 nM | C[C@@H]1CC(=O)N[C@@H]2CC[C@H](C2)c2nc(-c3ccc(C(=O)Nc4cc(C#N)ccn4)cc3)c3c(N)ncc(n23)/C=C/CCN1 [Example 218] | – | 500 to 10000 nM |
| < 5 nM | < 100 nM | < 100 nM | < 5 nM | – | – | CC(=O)N1CCC/C=C/c2cnc(N)c3c(-c4ccc(C(=O)Nc5cc(C(F)(F)F)ccn5)cc4)nn(c23)[C@@H]2CCC[C@H](C2)NC(=O)C1 [Example 167] | 100 to 500 nM | – |
| < 5 nM | < 100 nM | < 100 nM | < 5 nM | – | – | C[C@@H]1CCn2nc(-c3ccc(C(=O)Nc4cc(C(F)(F)F)ccn4)cc3)c3c(N)ncc(c32)/C=C/C[C@@H](C)OCCC(=O)N1 [Example 72] | 500 to 10000 nM | – |
| < 5 nM | < 100 nM | < 100 nM | < 5 nM | – | – | C[C@@H]1CCn2nc(-c3ccc(C(=O)Nc4cc(C(F)(F)F)ccn4)cc3)c3c(N)ncc(c32)/C=C/C[C@H](C)OCCC(=O)N1 [Example 73] | 100 to 500 nM | – |
| < 5 nM | < 100 nM | < 100 nM | < 5 nM | – | – | CN1CCC/C=C/c2cnc(N)c3c(-c4ccc(C(=O)Nc5cc(C(F)(F)F)ccn5)cc4)nn(c23)[C@@H]2CCC[C@H](C2)NC(=O)C1 [Example 41] | < 100 nM | – |
| < 5 nM | 1000 to 10000 nM | < 100 nM | < 5 nM | – | – | COc1ccc(F)cc1C(=O)NCc1ccc(-c2nc3n4c(cnc(N)c24)/C=C/CCN(C(C)=O)CC(=O)N[C@@H]2CC[C@@H]3C2)cc1 [Example 221] | 500 to 10000 nM | – |
